Reference: US20250172566A1, “SACCHARIDE SENSING SYSTEMS” (CARBOMETRICS LIMITED, priority 2022, published 2025)

Experiment: Fluorescent solution phase glucose responsive assay (pH 7.4, 298 K)
Conditions: Ex 470 nm
Method: Fluorescence spectroscopy was performed on either a HORIBA Duetta or BMG Labtech CLARIOstar plus plate reader. Emission spectra were obtained using the appropriate excitation wavelength and at a temperature of either 298 or 310 K and at pH 7.4 unless otherwise stated. Data collection and analysis were performed using EzSpec software by HORIBA or CLARIOstar MARS software by BMG Labtech. Further analysis and processing were performed in Microsoft Excel.
A solution of GBM and FIM at the required concentrations were created in the appropriate media. The emission spectrum of the assay was then acquired by exciting at the designated excitation wavelength to obtain the baseline emission intensity for the assay. Aliquots of 2 M D-glucose (in the same media) were then added to give the required final glucose concentrations (e.g. 15 μL of 2 M D-glucose in 3 mL gives a final D-glucose concentration of 10 mM) and the assay allowed to reach equilibration. The emission spectra were collected after each addition of D-glucose and compared to the original baseline emission, monitoring at the typical emission maximum (Emmax), and the percentage increase or decrease recorded. Emission spectra acquired on either a Horiba Duetta fluorometer or Clariostar plus plate reader.
The glucose responsive fluorescence emission for different combinations of glucose binding molecules (GBM) and fluorescent inhibitor molecules (FIM) at various concentrations and in various media was tested as described above. All results obtained at pH 7.4 and 298 K unless otherwise stated.
All results obtained at pH 7.4 and 298 K unless otherwise stated.
Table 4 provides the composition of the assay media used as the code assigned to each media as used in Tables 1 to 3.

O=C(CNC(=O)[C@H](Cc1cn(CCOCCOCCOCCOc2ccc(CCO[C@@H]3O[C@H](CO)[C@@H](O)[C@H](O)[C@H]3O)cc2)nn1)NC(=O)CCCC[C@@H]1SC[C@@H]2NCN[C@@H]21)Nc1ccc2c(c1)C(=O)OC21c2ccc(O)cc2Oc2cc(O)ccc21 [FIM35]
Change in Emmax for FIM at a particular D-glucose concentration (20 mM D-glucose, GBM29 50 μM, FIM 1 μM, medium B, Emmax 520 nm): 60% | Change in Emmax for FIM at a particular D-glucose concentration (20 mM D-glucose, GBM29 50 μM, FIM 1 μM, medium B, Emmax 520 nm, separate GBM and FIM components mixed with 0.25 molar equivalents of streptavidin tetramer prior to formulation of assay): 40%

C[N+](C)(C)[C@@H](CCCCNC(=O)[C@@H](N)CCCCn1cc(CNC(=O)c2ccc3c(c2)C2(OC3=O)c3ccc(N)c(S(=O)(=O)O)c3Oc3c2ccc(N)c3S(=O)(=O)O)nn1)C(=O)Nc1ccc(CCO[C@@H]2O[C@H](CO)[C@@H](O)[C@H](O)[C@H]2O)cc1 [FIM39]
Change in Emmax for FIM at a particular D-glucose concentration (5 mM D-glucose, GBM7 30 μM, FIM 1 μM, medium B, Emmax 520 nm): 95% | Change in Emmax for FIM at a particular D-glucose concentration (10 mM D-glucose, GBM7 30 μM, FIM 1 μM, medium B, Emmax 520 nm): 115% | Change in Emmax for FIM at a particular D-glucose concentration (20 mM D-glucose, GBM7 30 μM, FIM 1 μM, medium B, Emmax 520 nm): 120%

CC(C)(C)OC(=O)N[C@@H](Cc1cn(CCCC[C@@H](C(=O)NCC(CO[C@@H]2O[C@H](CO)[C@@H](O)[C@H](O)[C@H]2O)c2ccccc2)[N+](C)(C)C)nn1)C(=O)NCCOCCOCCn1cc(CNC(=O)c2ccc3c(c2)C(=O)OC32c3ccc(N)c(S(=O)(=O)[O-])c3Oc3c2ccc(N)c3S(=O)(=O)O)nn1 (stereo partly drawn) [FIM50]
Change in Emmax for FIM at a particular D-glucose concentration (5 mM D-glucose, GBM7 50 μM, FIM 2 μM, medium B, Emmax 520 nm): 140% | Change in Emmax for FIM at a particular D-glucose concentration (5 mM D-glucose, GBM15 100 μM, FIM 2 μM, medium B, Emmax 520 nm): 50% | Change in Emmax for FIM at a particular D-glucose concentration (10 mM D-glucose, GBM7 50 μM, FIM 2 μM, medium B, Emmax 520 nm): 180% | Change in Emmax for FIM at a particular D-glucose concentration (10 mM D-glucose, GBM15 100 μM, FIM 2 μM, medium B, Emmax 520 nm): 70% | Change in Emmax for FIM at a particular D-glucose concentration (20 mM D-glucose, GBM7 50 μM, FIM 2 μM, medium B, Emmax 520 nm): 200% | Change in Emmax for FIM at a particular D-glucose concentration (20 mM D-glucose, GBM15 100 μM, FIM 2 μM, medium B, Emmax 520 nm): 90%

Cc1ccc2n1[B-](F)(F)[N+]1=C(/C=C/c3ccc(C(=O)O)cc3)C=CC1=C2c1ccccc1OCc1cn(CCOCCOCCOCCO[C@@H]2O[C@H](CO)[C@@H](O)[C@H](O)[C@H]2O)nn1 [FIM31]
Change in Emmax for FIM at a particular D-glucose concentration (20 mM D-glucose, GBM22 5 μM, FIM 1 μM, medium A, Emmax 590 nm): 90%
